“And” between values parts separate entries of the source, which are not always exact repeats. Identical values can stand only once. Records with an inconclusive call do not appear.
Test system: BDF1 mice, s.c. Lewis lung carcinoma, T/C %
Assay: NCI In Vivo Anticancer Drug Screen. Data for tumor model Lewis Lung Carcinoma (subcutaneous) in B6D2F1 (BDF1) mice
Summary of the method: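 The value reflects a ratio in which the treated cohort's survival time or tumour size is compared against mice receiving only vehicle.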

[1] = endpoint: mean tumor weight, dose: 25.0 mg/kg/injection, schedule: Q01DX011 (ip), vehicle: saline, higher = larger tumour
[2] = endpoint: mean tumor weight, dose: 50.0 mg/kg/injection, schedule: Q01DX011 (ip), vehicle: saline, higher = larger tumour

Compound: C=CCNC(=O)NCC=C
- T/C [1]: 96 % of control
- T/C [2]: 28 % of control
- T/C (endpoint: mean tumor weight, dose: 100.0 mg/kg/injection, schedule: Q01DX011 (ip), vehicle: saline, higher = larger tumour): 16 % of control
- T/C (endpoint: mean tumor weight, dose: 200.0 mg/kg/injection, schedule: Q01DX011 (ip), vehicle: saline, higher = larger tumour): 43 % of control

Compound: O=C(O)CC(O)(CC(=O)O)C(=O)O.[Ga]
- T/C (endpoint: mean tumor weight, dose: 12.5 mg/kg/injection, schedule: Q01DX011 (ip), vehicle: saline, higher = larger tumour): 57 % of control
- T/C [1]: 50 % of control
- T/C [2]: 34 % of control

Compound: Nc1nc(=S)c2[nH]c(N=Nc3ccc(S(=O)(=O)Nc4ncccn4)cc3)nc2[nH]1
- T/C (endpoint: median survival time, dose: 0.78 mg/kg/injection, schedule: Q01DX009 (ip), vehicle: Klucel (hydroxypropylcellulose) (HPC), higher = longer survival): 99 % of control
- T/C (endpoint: median survival time, dose: 1.56 mg/kg/injection, schedule: Q01DX009 (ip), vehicle: Klucel (hydroxypropylcellulose) (HPC), higher = longer survival): 101 % of control
- T/C (endpoint: median survival time, dose: 3.12 mg/kg/injection, schedule: Q01DX009 (ip), vehicle: Klucel (hydroxypropylcellulose) (HPC), higher = longer survival): 95 % of control
- T/C (endpoint: median survival time, dose: 6.25 mg/kg/injection, schedule: Q01DX009 (ip), vehicle: Klucel (hydroxypropylcellulose) (HPC), higher = longer survival): 105 % of control

Compound: O=P(NC12CC3CC(CC(C3)C1)C2)(N1CC1)N1CC1
- T/C (endpoint: median survival time, dose: 0.25 mg/kg/injection, schedule: Q01DX009 (ip), vehicle: Klucel (hydroxypropylcellulose) (HPC), higher = longer survival): 86 % of control
- T/C (endpoint: median survival time, dose: 0.5 mg/kg/injection, schedule: Q01DX009 (ip), vehicle: Klucel (hydroxypropylcellulose) (HPC), higher = longer survival): 117 % of control
- T/C (endpoint: median survival time, dose: 1.0 mg/kg/injection, schedule: Q01DX009 (ip), vehicle: Klucel (hydroxypropylcellulose) (HPC), higher = longer survival): 92 % of control
- T/C (endpoint: median survival time, dose: 2.0 mg/kg/injection, schedule: Q01DX009 (ip), vehicle: Klucel (hydroxypropylcellulose) (HPC), higher = longer survival): 104 % of control
- T/C (endpoint: median survival time, dose: 4.0 mg/kg/injection, schedule: Q01DX009 (ip), vehicle: Klucel (hydroxypropylcellulose) (HPC), higher = longer survival): 101 % of control

Compound: COc1ccc(CN(CCOC(=O)c2ccc(OC)cc2)CCN(CCOC(=O)c2ccc(OC)cc2)Cc2ccc(OC)cc2)cc1
- T/C (endpoint: median survival time, dose: 25.0 mg/kg/injection, schedule: Q01DX009 (ip), vehicle: other, higher = longer survival): 100 % of control
- T/C (endpoint: median survival time, dose: 50.0 mg/kg/injection, schedule: Q01DX009 (ip), vehicle: other, higher = longer survival): 98 % of control
- T/C (endpoint: median survival time, dose: 100.0 mg/kg/injection, schedule: Q01DX009 (ip), vehicle: other, higher = longer survival): 93 % of control
- T/C (endpoint: median survival time, dose: 200.0 mg/kg/injection, schedule: Q01DX009 (ip), vehicle: other, higher = longer survival): 100 % of control

Compound: NC(=S)N/N=C/c1ccc(O)cn1
- T/C (endpoint: median survival time, dose: 18.8 mg/kg/injection, schedule: Q01DX009 (ip), vehicle: saline with Tween-80, higher = longer survival): 94 % of control
- T/C (endpoint: median survival time, dose: 37.5 mg/kg/injection, schedule: Q01DX009 (ip), vehicle: saline with Tween-80, higher = longer survival): 106 % of control and 119 % of control
- T/C (endpoint: median survival time, dose: 75.0 mg/kg/injection, schedule: Q01DX009 (ip), vehicle: saline with Tween-80, higher = longer survival): 97 % of control
- T/C (endpoint: median survival time, dose: 150.0 mg/kg/injection, schedule: Q01DX009 (ip), vehicle: saline with Tween-80, higher = longer survival): 121 % of control

Compound: CCCCCCCCCCCCCCCCCCOC(=O)CCSCCC(=O)OCCCCCCCCCCCCCCCCCC
- T/C (endpoint: mean tumor weight, dose: 133.0 mg/kg/injection, schedule: Q01DX011 (ip), vehicle: carboxymethylcellulose (CMC), higher = larger tumour): 117 % of control
- T/C (endpoint: mean tumor weight, dose: 200.0 mg/kg/injection, schedule: Q01DX011 (ip), vehicle: carboxymethylcellulose (CMC), higher = larger tumour): 88 % of control
- T/C (endpoint: mean tumor weight, dose: 300.0 mg/kg/injection, schedule: Q01DX011 (ip), vehicle: carboxymethylcellulose (CMC), higher = larger tumour): 101 % of control
- T/C (endpoint: mean tumor weight, dose: 450.0 mg/kg/injection, schedule: Q01DX011 (ip), vehicle: carboxymethylcellulose (CMC), higher = larger tumour): 86 % of control
- T/C (endpoint: mean tumor weight, dose: 500.0 mg/kg/injection, schedule: Q01DX011 (ip), vehicle: other, higher = larger tumour): 165 % of control
- T/C (endpoint: mean tumor weight, dose: 750.0 mg/kg/injection, schedule: Q01DX011 (ip), vehicle: other, higher = larger tumour): 121 % of control

— PubChem BioAssay AID270 (DTP/NCI, 2004)
